Test results from ChEMBL document CHEMBL1201862, “PubChem BioAssay data set” (2004).
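Interpolation was linear, between the two tested concentrations surrounding the appropriate level; five concentrations were tested over 48 hours in 96-well plates. At the GI50, growth is halved.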 Calls of active or inactive are those of the source. No stated cut-off is given here; in the data, active = GI50 up to about 1.1 µM and inactive = higher.

How the values were obtained:
Assay in all cases: NCI-60 cell line screen, 48 h
KM12 = system: KM12
NCI-H522 = system: NCI-H522
SNB-19 = system: SNB-19
OVCAR-5 = system: OVCAR-5
MDA-N = system: MDA-N
T47D = system: T47D
CCRF-CEM = system: CCRF-CEM
IGROV-1 = system: IGROV-1
UACC-257 = system: UACC-257
UACC-62 = system: UACC-62
SK-MEL-5 = system: SK-MEL-5
SNB-75 = system: SNB-75
TK-10 = system: TK-10
SF-295 = system: SF-295
MDA-MB-231 = system: MDA-MB-231
SF-539 = system: SF-539
HT-29 = system: HT-29
RXF 393 = system: RXF 393
M14 = system: M14
SF-268 = system: SF-268

N#Cc1ccc(C2ON=C(c3ccccc3)N2C23CC4CC(CC(C4)C2)C3)cc1 (stereo not given)
GI50 (KM12): > 10 µM (inactive) | GI50 (NCI-H522): > 10 µM (inactive) | GI50 (SNB-19): > 10 µM (inactive) | GI50 (OVCAR-5): > 10 µM (inactive) | GI50 (MDA-N): > 10 µM (inactive) | GI50 (T47D): > 10 µM (inactive) | GI50 (CCRF-CEM): > 10 µM (inactive) | GI50 (IGROV-1): > 10 µM (inactive) | GI50 (UACC-257): > 10 µM (inactive) | GI50 (UACC-62): > 10 µM (inactive) | GI50 (SK-MEL-5): > 10 µM (inactive) | GI50 (SNB-75): > 10 µM (inactive) | GI50 (TK-10): > 10 µM (inactive) | GI50 (SF-295): > 10 µM (inactive) | GI50 (MDA-MB-231): > 10 µM (inactive) | GI50 (SF-539): > 10 µM (inactive) | GI50 (HT-29): > 10 µM (inactive) | GI50 (RXF 393): > 10 µM (inactive) | GI50 (M14): > 10 µM (inactive) | GI50 (SF-268): > 10 µM (inactive)

CC1=C(/C=C/C(C)=C/C=C/C(C)=C/C(=O)OCC2OC(n3cc(F)c(=O)[nH]c3=O)CC2OC(=O)/C=C(C)/C=C/C=C(C)/C=C/C2=C(C)CCCC2(C)C)C(C)(C)CCC1 (stereo not given)
GI50 (KM12): 23.9 µM (inactive) | GI50 (NCI-H522): 8.2 µM (inactive) | GI50 (SNB-19): 3.1 µM (inactive) | GI50 (OVCAR-5): > 45.3 µM (inactive) | GI50 (MDA-N): 10.4 µM (inactive) | GI50 (T47D): 15.7 µM (inactive) | GI50 (CCRF-CEM): 0.684 µM (active) | GI50 (IGROV-1): 6.32 µM (inactive) | GI50 (UACC-257): 9.23 µM (inactive) | GI50 (UACC-62): 0.83 µM (active) | GI50 (SK-MEL-5): 3.08 µM (inactive) | GI50 (SNB-75): 10.4 µM (inactive) | GI50 (TK-10): 21.6 µM (inactive) | GI50 (SF-295): 0.301 µM (active) | GI50 (MDA-MB-231): 30.1 µM (inactive) | GI50 (SF-539): 0.314 µM (active) | GI50 (HT-29): 11.2 µM (inactive) | GI50 (RXF 393): 22.3 µM (inactive) | GI50 (M14): 3.81 µM (inactive) | GI50 (SF-268): 0.618 µM (active)

S=c1[nH]c2ccc(Br)cc2c(=S)s1
GI50 (KM12): 29.4 µM (inactive) | GI50 (NCI-H522): 25.1 µM (inactive) | GI50 (SNB-19): 31.5 µM (inactive) | GI50 (OVCAR-5): 19.2 µM (inactive) | GI50 (MDA-N): 23.4 µM (inactive) | GI50 (T47D): 22.5 µM (inactive) | GI50 (CCRF-CEM): 30.8 µM (inactive) | GI50 (IGROV-1): 22.1 µM (inactive) | GI50 (UACC-257): 23.5 µM (inactive) | GI50 (UACC-62): 18 µM (inactive) | GI50 (SK-MEL-5): 16.5 µM (inactive) | GI50 (SNB-75): 28.1 µM (inactive) | GI50 (TK-10): 32.9 µM (inactive) | GI50 (SF-295): 27.4 µM (inactive) | GI50 (MDA-MB-231): 22.8 µM (inactive) | GI50 (SF-539): 34.4 µM (inactive) | GI50 (HT-29): 24.4 µM (inactive) | GI50 (RXF 393): 27.6 µM (inactive) | GI50 (M14): 30.5 µM (inactive) | GI50 (SF-268): 34.4 µM (inactive)

COc1ccc(C2NC(=O)Nc3c2c(=O)oc2c3ccc3ccccc32)cc1 (stereo not given)
GI50 (KM12): 57 µM (inactive) | GI50 (NCI-H522): 53.2 µM (inactive) | GI50 (SNB-19): 33.2 µM (inactive) | GI50 (OVCAR-5): > 100 µM (inactive) | GI50 (MDA-N): 59.2 µM (inactive) | GI50 (T47D): 31.1 µM (inactive) | GI50 (CCRF-CEM): 37 µM (inactive) | GI50 (IGROV-1): 50.4 µM (inactive) | GI50 (UACC-257): > 100 µM (inactive) | GI50 (UACC-62): 29.6 µM (inactive) | GI50 (SK-MEL-5): 71.6 µM (inactive) | GI50 (SNB-75): 22.3 µM (inactive) | GI50 (TK-10): 74.3 µM (inactive) | GI50 (SF-295): 51.4 µM (inactive) | GI50 (MDA-MB-231): 54 µM (inactive) | GI50 (SF-539): 83 µM (inactive) | GI50 (HT-29): 77.6 µM (inactive) | GI50 (RXF 393): 42 µM (inactive) | GI50 (M14): 37.6 µM (inactive) | GI50 (SF-268): 56.4 µM (inactive)

COc1ccc(-c2cc(-c3ccc(Nc4ccnc5cc(Cl)ccc45)cc3)[nH]c(=O)c2C#N)c2ccccc12
GI50 (KM12): 3.47 µM (inactive) | GI50 (NCI-H522): 1.79 µM (inactive) | GI50 (SNB-19): 3.39 µM (inactive) | GI50 (OVCAR-5): 41.3 µM (inactive) | GI50 (MDA-N): 2.01 µM (inactive) | GI50 (T47D): 1.88 µM (inactive) | GI50 (CCRF-CEM): 1.09 µM (active) | GI50 (IGROV-1): 5.26 µM (inactive) | GI50 (UACC-257): 24.9 µM (inactive) | GI50 (UACC-62): 19.5 µM (inactive) | GI50 (SK-MEL-5): 13.1 µM (inactive) | GI50 (SNB-75): 3.2 µM (inactive) | GI50 (TK-10): 8.63 µM (inactive) | GI50 (SF-295): 17.7 µM (inactive) | GI50 (MDA-MB-231): 3.29 µM (inactive) | GI50 (SF-539): 1.82 µM (inactive) | GI50 (HT-29): 2 µM (inactive) | GI50 (RXF 393): 5.05 µM (inactive) | GI50 (M14): 2.03 µM (inactive) | GI50 (SF-268): 12.7 µM (inactive)
